According to patent US7795206B2, “Peptide that inhibits janus kinase” (YM Biosciences Australia Pty Ltd, priority 2001, dated 2010):

Key:
[1] = test system: Ba/F3 cells transformed to factor independence by ectopic expression of TEL/JAK2 fusion; test: Ba/F3 proliferation assay, cells transformed to factor independence by TEL/JAK2; assay type: cell-based, murine; conditions: oncogenic JAK2 (PTK domain fused to PNT domain of TEL); FIG. 5
[2] = test system: wild-type Ba/F3 cells grown upon IL-3; test: Ba/F3 proliferation assay (IL-3 dependent growth, MTT); assay type: cell-based, murine; conditions: peptide 1 μM to 100 μM in PBS; cell number after three days by MTT assay; FIG. 5
Experimental: FIG. 5. Ba/F3 cell assay: Inhibition of the growth of the IL-3 dependent growth of Ba/F3 cells has been brought about by the addition of a peptide derived from JAK2 PSL. PSLShort PAEFMRMI (SEQ ID NO:15) and PSLControl SPSKFRMPEAMIGND (SEQ ID NO:16) were added at concentrations ranging from IμM to 100 μM in phosphate buffered saline. Cell number after three days was measured by an MTT assay.
These peptides were tested for biological activity by means of a proliferation assay using the murine growth factor dependent hematopoietic cell line Ba/F3. On the basis of our hypothesis of the role of how the PSL region might work, we reasoned that if these peptides were to supplant the PSL from the KLD of JAK2, then the JAK PTK activity would thereby either become unregulated, resulting in a IL-3 independent growth phenotype, or the normal IL-3 dependent growth of these cells would be inhibited. […] We hypothesize that the activity of the PSLshort peptide was dependent upon the presence of the JAK2 KLD, and conclude that its mode of action is by displacement of the PSL of JAK2 from the JAK2 KLD, resulting in unprimed JAK2 molecules that cannot be triggered by IL-3. […]
The murine hematopoietic cell line Ba/F3 was grown in the presence of IL-3. […] Cell number after three days was measured by an MTT assay.

For PAEFMRMI (homo sapiens) [PSLshort], the “inhibition of growth of Ba/F3 cells transformed to factor independence by TEL/JAK2” value [1] was “unable to inhibit” and the “inhibition of growth of wild-type Ba/F3 cells grown upon IL-3” value [2] was “able to inhibit growth”.
